Source: the supplement of paper PMC10883282
Structures can show the parent of a compound that is named as a salt.

Experiments:
Experiment in all cases: relative viability vs DMSO control (72 h) (fraction); higher = more viable cells
A204 = system: A204
Summary of the method: (§1)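 Relative viability is percent growth read by ATPLite and averaged over up to triplicate wells. Sarcoma cells were seeded in 384-well plates to reach 80–90% confluence and given 2.5 µl of serially diluted compound after 24 h, from source plates of 10 mM to 0.0002 mM. Incubation lasted 72 h at 37 °C, 5% CO2, with 0.1% DMSO vehicle and a 5 µM positive control, and the data were rescaled so 1 equals full and 0 equals none.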

KHOS-NP = system: KHOS-NP
Summary of the method: as §1

SW872 = system: SW872
Summary of the method: as §1

HS729 = system: HS729
Summary of the method: as §1

SW684 = system: SW684
Summary of the method: as §1

Cn1cc(C2=C(c3cn(C4CCN(Cc5ccccn5)CC4)c4ccccc34)C(=O)NC2=O)c2ccccc21 [Enzastaurin]
relative viability
Conditions | A204 | HS729 | KHOS-NP | SW684 | SW872
0.00017 µM | 1.07 | 1.06 | 1.12 | 1.17 | 1.07
0.00051 µM | 1.13 | 1.09 | 1.13 | 1.18 | 1.09
0.00152 µM | 1.13 | 1.07 | 1.12 | 1.22 | 1.08
0.00457 µM | 1.12 | 1.07 | 1.131 | 1.18 | 1.06
0.01372 µM | 1.11 | 1.05 | 1.14 | 1.2 | 1.01
0.04115 µM | 1.07 | 1.05 | 1.12 | 1.17 | 1.08
0.1235 µM | 1.07 | 1.01 | 1.13 | 1.17 | 1.04
0.3704 µM | 1.1 | 1.02 | 1.12 | 1.18 | 1.09
1.111 µM | 1.09 | 1.06 | 1.11 | 1.11 | 1.05
3.333 µM | 1.08 | 1.13 | 1.1 | 0.956 | 1.06
10 µM | 0.906 | 1.15 | 1.1 | 0.944 | 0.96

C=C1C[C@@H]2CC[C@@]34C[C@H]5O[C@H]6[C@@H](O3)[C@H]3O[C@H](CC[C@@H]3O[C@H]6[C@H]5O4)CC(=O)C[C@@H]3[C@@H](OC)[C@@H](C[C@H](O)CN)O[C@H]3C[C@H]3O[C@@H](CC[C@@H]1O2)C[C@@H](C)C3=C [Eribulin Mesylate]
relative viability
Conditions | A204 | HS729 | KHOS-NP | SW684 | SW872
1.37 pM | 1.12 | 1.04 | 1.11 | 1.16 | 1.08
4.1 pM | 1.12 | 0.987 | 1.119 | 1.13 | 1.09
12.3 pM | 1.09 | 0.965 | 1.113 | 1.11 | 1.06
37 pM | 0.68 | 0.874 | 1.11 | 0.994 | 0.946
0.00011 µM | 0.596 | 0.835 | 1.1 | 1 | 0.869
0.00033 µM | 0.475 | 0.756 | 1.05 | 0.865 | 0.8125
0.001 µM | 0.414 | 0.6663 | 0.922 | 0.806 | 0.686
0.003 µM | 0.329 | 0.583 | 0.669 | 0.812 | 0.567
0.009 µM | 0.2412 | 0.519 | 0.479 | 0.822 | 0.4921
0.027 µM | 0.224 | 0.48 | 0.438 | 0.828 | 0.429
460 fM | 1.11 | 1.08 | 1.1 | 1.15 | 1.1

O=S(=O)(c1cccc2cnccc12)N1CCCNCC1 [Fasudil]
relative viability
Conditions | 0.00051 µM | 0.00152 µM | 0.00457 µM | 0.01372 µM | 0.04115 µM | 0.1235 µM | 0.3704 µM | 1.111 µM | 3.333 µM | 10 µM
A204 | 0.98 | 1.03 | 1.02 | 1.02 | 1.01 | 0.987 | 1.01 | 0.991 | 0.973 | 0.891
HS729 | 0.949 | 0.964 | 1.01 | 0.949 | 0.953 | 0.926 | 0.974 | 0.957 | 0.925 | 0.855
KHOS-NP | 1.03 | 1.04 | 1.029 | 1.02 | 1.01 | 1.03 | 1.02 | 1.05 | 1.01 | 1.03
SW684 | 1.02 | 1.02 | 0.965 | 0.945 | 0.965 | 0.986 | 1.02 | 0.95 | 0.895 | 0.761
SW872 | 0.959 | 0.979 | 0.993 | 0.964 | 0.958 | 0.9735 | 0.966 | 0.9852 | 1 | 0.929

O=C(Nc1nc2cccc(-c3ccc(CN4CCS(=O)(=O)CC4)cc3)n2n1)C1CC1 [Filgotinib]
relative viability
Conditions | A204 | HS729 | KHOS-NP | SW684 | SW872
0.00017 µM | 1.09 | 1.04 | 1.09 | 1.13 | 1.07
0.00051 µM | 1.15 | 0.993 | 1.12 | 1.19 | 1.02
0.00152 µM | 1.07 | 0.953 | 1.1 | 1.211 | 1.05
0.00457 µM | 1.068 | 0.95 | 1.101 | 1.19 | 1.03
0.01372 µM | 1.06 | 0.938 | 1.1 | 1.16 | 1.04
0.04115 µM | 1.14 | 0.898 | 1.1 | 1.19 | 1.01
0.1235 µM | 1.13 | 0.888 | 1.085 | 1.18 | 1.02
0.3704 µM | 1.1 | 0.934 | 1.085 | 1.19 | 1.02
1.111 µM | 1.12 | 0.906 | 1.08 | 1.18 | 1.03
3.333 µM | 1.14 | 0.849 | 1.1 | 1.16 | 1.02
10 µM | 0.974 | 0.831 | 1.09 | 1.09 | 0.933

COc1cc(Nc2ncc(F)c(Nc3ccc4c(n3)N(COP(=O)(O)O)C(=O)C(C)(C)O4)n2)cc(OC)c1OC [Fostamatinib]
relative viability
Conditions | A204 | HS729 | KHOS-NP | SW684 | SW872
0.00017 µM | 1.07 | 0.913 | 1.09 | 1.14 | 1.09
0.00051 µM | 1.08 | 0.952 | 1.08 | 1.17 | 1.07
0.00152 µM | 1.07 | 0.938 | 1.1 | 1.15 | 1.08
0.00457 µM | 1.07 | 0.961 | 1.091 | 1.17 | 1.09
0.01372 µM | 1.07 | 0.982 | 1.07 | 1.13 | 1.08
0.04115 µM | 1.02 | 0.914 | 1.089 | 1.18 | 1.05
0.1235 µM | 0.954 | 0.845 | 1.09 | 1.09 | 0.977
0.3704 µM | 0.763 | 0.724 | 1.05 | 1.03 | 0.795
1.111 µM | 0.494 | 0.726 | 0.98 | 0.877 | 0.617
3.333 µM | 0.236 | 0.519 | 0.64 | 0.618 | 0.267
10 µM | 0.07 | 0.586 | 0.278 | 0.481 | 0.202
